Results published in patent US6229029A, “11β-aryl substituted 14,17-ethanoestratriens, method for the production of these compounds and their use in the production of medicaments” (Schering Aktiengesellschaft, priority 1997, dated 2001).

How the values were obtained:
[1] = tested on: trabecular bone (proximal tibia) of ovariectomized rats; experiment: Bone studies in ovariectomized rats: trabecular bone surface area (TB/TV), histological, proximal tibia; format: in vivo, rat; conditions: 28 days
Procedure: 3-month-old female rats are ovariectomized and treated once daily with the test compound immediately after the operation for 28 days. The administration is done subcutaneously in castor oil/benzyl benzoate or arachis oil/ethanol. The animals are sacrificed on the day after the last administration, and femurs, tibiae and uteri are removed. The uteri are weighed, fixed and worked up for histological studies. The determination of the bone density is carried out ex vivo on prepared long bones with use of pQCT (Quantitative Computer Tomography). The measurements are performed at a distance of 5-7 mm from the ball of the joint on the distal femur or the proximal tibia.
As an alternative, the action on the bone is determined by measuring the trabecular bone surface area of the secondary spongiosa in histological preparations of the distal femur or the proximal tibia. The result is expressed as the proportion, in percent, of the trabecular bone surface area in the measured total bone surface area ([…]). The bone density that is measured with use of QCT and the trabecular bone surface area that is determined in the histological section correlate well to one another. A comparison of the two measurement variables is therefore permissible.
About 50% of the bone density of the animals is lost by the ovariectomy. […] In Table 4 and FIG. 2, the results of this test for doses of 0.1-100 μg/animal/day are presented. The bone density was measured on the distal femur; for comparison, the trabecular bone surface area in the proximal tibia was measured. The data that are contained in Table 4 mean specifically:
TB/TV trabecular bone surface area/total bone surface area; histologically determined
For compound B according to the invention, their bone-protecting action was also determined (Table 6). For this purpose, the parameter of TB/TV was determined, which, however, with respect to the informational value for the bone-protecting activity correlates well to the parameter of BMD-qCT that is determined for compounds A and V. This can be ascertained from Table 4; both parameters were determined for compound A.

[2] = tested on: bone (distal femur / proximal tibia) of ovariectomized rats; experiment: Bone studies in ovariectomized rats: bone density by pQCT; format: in vivo, rat; conditions: for % of Action of E2 (bone density tibia) / Bone Density Tibia: Table 7, proximal tibia
estrogen receptors = biological target: T1, estrogen receptors (Homo sapiens, UniProt P03372); experiment: Transactivation assay in HeLa cells (partial estrogenic action, rPR-TK); format: cell-based; conditions: rPR-TK reporter, read-out: Agonism HELA (rPR-TK)
T1 construct: expressed in transfected cells; host or cells: HeLa cells
Procedure: The partial estrogenic action was also determined by transactivation assays. HeLa cells were […] with estrogen receptors and a reporter gene, which consists of the estrogen-response element of the progesterone receptor and the CAT-gene. The test was performed as described: Savouret et al., EMBO J. 10, 1875-1883 (1991).

bone / uterus of rats = experiment: Dissociation of bone action/uterus action (FIG. 7); format: in vivo, rat; conditions: bone action vs uterus epithelial height, relative to 17β-estradiol
From the text: There, for compounds A, B and V, their bone-protecting actions are compared to the action of estrogen on the uterus (parameter: uterus epithelial height) as a function of dosage, in each case relative to the action of 17β-estradiol.

human estrogen receptor = biological target: T2, human estrogen receptor (Homo sapiens, UniProt P03372); experiment: Transactivation assay in HeLa cells (antiestrogenic action, vit-TK-CAT reporter); format: cell-based; conditions: in the presence of 0.1 nM estradiol, read-out: Antagonism IC50, HELA
T2 construct: expressed in transfected cells; host or cells: HeLa cells
T2 sequence (P03372 1-595): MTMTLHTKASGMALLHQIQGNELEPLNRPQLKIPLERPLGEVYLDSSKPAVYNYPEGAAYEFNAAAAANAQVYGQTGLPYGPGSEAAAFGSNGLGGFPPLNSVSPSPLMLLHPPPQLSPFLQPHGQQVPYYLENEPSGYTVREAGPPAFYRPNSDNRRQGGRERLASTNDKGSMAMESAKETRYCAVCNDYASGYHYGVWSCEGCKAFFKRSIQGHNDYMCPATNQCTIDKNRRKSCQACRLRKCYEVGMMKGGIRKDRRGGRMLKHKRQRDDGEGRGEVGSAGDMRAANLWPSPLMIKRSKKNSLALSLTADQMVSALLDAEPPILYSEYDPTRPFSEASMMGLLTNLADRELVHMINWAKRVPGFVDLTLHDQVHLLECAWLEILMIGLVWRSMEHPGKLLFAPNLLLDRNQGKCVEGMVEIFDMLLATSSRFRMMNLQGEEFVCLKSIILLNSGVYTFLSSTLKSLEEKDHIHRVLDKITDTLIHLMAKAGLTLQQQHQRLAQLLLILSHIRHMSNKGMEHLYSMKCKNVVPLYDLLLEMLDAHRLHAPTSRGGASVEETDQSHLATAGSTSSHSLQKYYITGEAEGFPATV

uterus of infant rats [3] = experiment: Anti-uterus growth test in infant rats (antiestrogenic action); format: in vivo, rat; conditions: with 0.3 μg/animal/day 17β-estradiol
From the text: (§1) The influence of the compounds according to the invention on the uterus was examined in the uterus growth test (estrogenic action) and in the anti-uterus growth test (antiestrogenic action), both performed on infant rats.
The uterus of infant estrogen-substituted rats can be used as a test model to detect a direct action of substances with antiestrogenic properties. The parameter of the estrogenic action is the uterus growth that is induced by estradiol in infant rats and that is inhibited by simultaneous administration of a substance with antiestrogenic action.
The test substances are treated s.c. on 3 successive days (d1-d3) in combination with a substitution dose of 0.3 μg/animal/day of 17β-estradiol. As a positive control, 17β-estradiol alone is used; the vehicle group is used as a negative control. On day 4 (d4), the animals are sacrificed, uteri and vaginae are prepared outside and weighed. The organ weights are converted into mg/100 g of body weight, and then the mean and the standard deviation for each dosage are calculated. The inhibition of the uterus or vaginal growth that is induced by 17β-estradiol is indicated in % as inhibition.

uterus of infant rats [4] = experiment: Uterus growth test on infant rats (estrogenic action); format: in vivo, rat; conditions: for Epithelial Height % E2 / Uterus Weight % E2: 3 days, infant rats; for estrogenic action in the uterus (in words): uterus growth test
From the text: as §1
In infant animals, both uterus and vagina show one of the estrogenic activity-dependent weight increases in their treatment with an estrogenically active substance. In the uterus, under estrogenic action, moreover, it results in a proliferation and height increase of the luminal epithelium.
Immature, normal rats (body weight 40-50 g) receive the substance s.c. over 3 days (d1-d3). On day 4 (d4), the animals are sacrificed with CO2. The uteri are prepared outside and weighed. A piece of the uterus, preferably a uterine horn, is set in formaldehyde for the histological evaluation and embedded in paraffin. The stimulation of the organ weights (relative to mg/100 g of body weight) and the epithelial height are indicated in percentage stimulation in comparison to the reference compound 17β-estradiol. (Substitution dose E2 0.3 μg/animal).

[5] = Table 6, tibia, 0.3 μg/animal/day s.c.
[6] = Table 4, distal femur, 0.3 μg/animal/day s.c., 28 days
[7] = Table 5, proximal tibia, 0.3 μg/animal/day s.c., 28 days
[8] = 0.3 μg/animal/day s.c., 28 days
[9] = Table 6, tibia, 1 μg/animal/day s.c.
[10] = Table 6, tibia, 10 μg/animal/day s.c.
[11] = Table 6, tibia, 100 μg/animal/day s.c.
[12] = 100 μg/animal/day s.c., 28 days
[13] = 250 μg/animal/day s.c., 28 days

## C[C@]12CC[C@@H]3c4ccc(O)cc4CC[C@H]3[C@@H]1CC[C@@H]2O [17β-estradiol, reference compound]
[1]; Table 4, proximal tibia, 0.3 μg/animal/day s.c.
  TB/TV (Tibia): 34.0%
[1]; [5]
  % of Action of E2 (TB/TV): 100%
  TB/TV (Tibia): 26.0%
[2]; [6]
  % of Action of E2 (bone density femur): 100%
  Bone Density Femur: 361.7 mg Ca/ccm
[2]; [7]
  % of Action of E2 (bone density): 100%
  Bone Density: 375.2 mg Ca/ccm
[2]; [8]
  % of Action of E2 (bone density tibia): 100%
  Bone Density Tibia: 402.9 mg Ca/ccm

## C[C@]12C[C@H](c3ccc(OCCCCC[S+]([O-])Cc4ccccn4)cc3)[C@@H]3c4ccc(O)cc4CC[C@H]3[C@]13CC[C@@]2(O)CC3 (stereo partly drawn) [Compound B, 14α,17α-ethano-11β-{4-[5-(2-pyridinomethylsulfinyl)pentyloxy]phenyl}-1,3,5(10)-estratriene-3,17β-diol]
Estrogen receptors
  Emax: 50%
Bone / uterus of rats
  dissociation of bone-protecting action from estrogen action on the uterus (in words): considerably dissociated
Human estrogen receptor
  IC50: 0.3 nM
Uterus of infant rats [3]; 0.1 mg/kg s.c.
  Uterus Weight % of Inhibition: 32%
Uterus of infant rats [3]; 1 mg/kg s.c.
  Uterus Weight % of Inhibition: 83%
Uterus of infant rats [3]; 10 mg/kg s.c.
  Uterus Weight % of Inhibition: 100%
[1]; [9]
  % of Action of E2 (TB/TV): 52%
  TB/TV (Tibia): 19.6%
[1]; [10]
  % of Action of E2 (TB/TV): 47%
  TB/TV (Tibia): 18.9%
[1]; [11]
  % of Action of E2 (TB/TV): 45%
  TB/TV (Tibia): 18.6%
Uterus of infant rats [4]; 0.01 mg/kg s.c.
  Epithelial Height % E2: 4 % E2
  Uterus Weight % E2: 3 % E2
Uterus of infant rats [4]; 0.1 mg/kg s.c.
  Epithelial Height % E2: 19 % E2
  Uterus Weight % E2: 31 % E2
Uterus of infant rats [4]; 1 mg/kg s.c.
  Epithelial Height % E2: 18 % E2
  Uterus Weight % E2: 14 % E2
Uterus of infant rats [4]; 10 mg/kg s.c.
  Epithelial Height % E2: 13 % E2
  Uterus Weight % E2: 6 % E2
Uterus of infant rats [4]; s.c., in the considered dose range, vs compound V
  estrogenic activity relative to compound V (in words): approximately half as strongly estrogenically active
Uterus of infant rats [4]; s.c.
  estrogenic action in the uterus (in words): low estrogenic action

## C[C@]12C[C@H](c3ccc(OCCCCC[S+]([O-])Cc4ccccn4)cc3)[C@@H]3c4ccc(O)cc4CC[C@H]3[C@@H]1CC[C@@H]2O (stereo partly drawn) [Compound V, reference compound]
Estrogen receptors
  Emax: 37%
Bone / uterus of rats
  dissociation of bone-protecting action from estrogen action on the uterus (in words): the two curves coincide
Uterus of infant rats [3]; 0.3 mg/kg s.c.
  Uterus Weight % of Inhibition: 57%
[2]; 10 μg/animal/day s.c., 28 days
  % of Action of E2 (bone density tibia): 40%
  Bone Density Tibia: 337.3 mg Ca/ccm
[2]; [12]
  % of Action of E2 (bone density tibia): 34.4%
  Bone Density Tibia: 331.2 mg Ca/ccm
[2]; [13]
  % of Action of E2 (bone density tibia): 74%
  Bone Density Tibia: 374.3 mg Ca/ccm
[2]; proximal tibia, s.c.
  dose with which an action of about 80% of 17β-estradiol on trabecular bone is achieved: 250 μg/animal/day
Uterus of infant rats [4]; 0.03 mg/kg s.c.
  Epithelial Height % E2: 18 % E2
  Uterus Weight % E2: 28 % E2
Uterus of infant rats [4]; 0.3 mg/kg s.c.
  Epithelial Height % E2: 33 % E2
  Uterus Weight % E2: 32 % E2
Uterus of infant rats [4]; 3 mg/kg s.c.
  Epithelial Height % E2: 27 % E2
  Uterus Weight % E2: 19 % E2
Uterus of infant rats [4]; s.c.
  estrogenic action in the uterus (in words): low estrogenic action
